{"source": "patent US11484608B2", "about": "“Non-invasive assessment of hepatic mitochondrial metabolism by positional isotopomer NMR tracer analysis (PINTA)” (YALE UNIVERSITY, priority 2017, dated 2022)", "system": "hepatic glucose production, VPC and VCS (InsP3R-I signaling)", "test": "Acute 2 hr glucagon infusion in WT and liver-specific InsP3R-I KO mice", "type": "in vivo, mouse", "excerpt": "All protocols were approved by the Yale University Animal Care and Use Committee. Liver-specific InsP3R-I KO mice were generated as described (Feriod, et al. Hepatology Communications 1, 23-35, 2017) and in all experiments, littermates were studied at 10-12 weeks of age. They were fed standard chow (Teklad #2018) and housed on a 12 hr light/dark cycle in the Yale Animal Resources Center. To knock down ATGL in a liver-specific manner, an adeno-associated virus targeting ATGL (Vector BioLabs, 10^12 gc per mouse) was administered by retro-orbital injection four weeks prior to studies. Male mice were used for in vivo studies, while female mice were used for in vitro studies, unless otherwise specified. One week prior to in vivo studies, mice underwent surgery under isoflurane anesthesia to place a catheter in the jugular vein. Post-surgical recovery was confirmed by regaining the pre-surgical body weight prior to any in vivo studies. They were fasted overnight, unless otherwise stated, prior to in vivo studies. […] Mice were euthanized using IV pentobarbital at the conclusion of the terminal study.\nIn the rat studies, blood was collected from the jugular venous catheter. In both species, samples were immediately centrifuged (12,000 rpm) to separate plasma from red blood cells. PINTA analysis of hepatic mitochondrial fluxes was employed in both rats and mice (see Example 1). Briefly, mice were infused with a two-hour primed (5 min, 3×)-continuous infusion of [3-^13C] lactate (40 μmol kg^−1 min^−1) and [1,2,3,4,5,6,6-^2H7] glucose (0.1 mg kg^−1 min^−1). Rats were infused with lactate at the same rate, as well as [3-^3H] glucose (0.1 mCi kg^−1 min^−1). At the conclusion of the study, animals were euthanized with IV pentobarbital.\nTotal glucose turnover (i.e. hepatic glucose production) was measured by determining the specific activity of [^3H] glucose in plasma using a scintillation counter, and the VPC/VHGP ratio was calculated using the equation\n[formula] and calculated absolute VCS by dividing VPC by VPC/VCS. The derivations of each equation are described in detail in Example 1. The possible contribution of [^13C] bicarbonate to label the TCA cycle was corrected for as follows. Liver [^13C] bicarbonate enrichment was measured by GC-MS (HP-1 column: 12 m×0.2 mm×0.33 μm film, isothermal: 110° C.). Liver tissue (˜[…]) was placed in a GC-MS vial, purged with N2 gas, and sealed. To each sample, a saturated aqueous solution of citric acid (50 μl) was injected into the vial through the cap. After ten minutes, CO2 was sampled from the head-space and ions with m/z 44 and 45 daltons were monitored using electron impact ionization.\nPlasma glucose concentrations were measured using a YSI Glucose Analyzer. […] Plasma NEFA concentrations were measured using the Wako NEFA assay, while plasma glycerol and plasma and liver amino acid concentrations were measured by GC/MS. […] Protein concentrations were measured by Western blot, using antibodies from Santa Cruz (PC, PEPCK, CAMKII), Cell Signaling (ATGL, pCAMKIV, CAMKIV, pCRTC2, CRTC2, pACC, ACC, pAMPK, AMPK, pHSL, HSL, GAPDH, and β-actin), Novus Biologicals (pCAMKII), Abcam (pATGL), LSBio (pInsP3R-I), and BD Transduction Laboratories (InsP3R-II, InsP3R-III, PKCε).", "data": [{"substance": "glucagon", "values": [{"measurement": "hepatic CAMKII phosphorylation", "setting": "InsP3R-I-dependent, CAMKIV not", "result": "stimulated"}, {"measurement": "increases in rates of HGP", "setting": "PINTA, acute glucagon infusion", "result": "~25", "unit": "%"}, {"measurement": "increase in InsP3R-I phosphorylation", "setting": "WT livers", "result": "two-fold"}, {"measurement": "increase in hepatic mitochondrial oxidation (VCS)", "setting": "WT mice", "result": "five-fold"}, {"measurement": "plasma non-esterified fatty acid (NEFA) concentrations", "setting": "WT mice", "result": "reduced"}, {"measurement": "increase in hepatic ATGL S406 phosphorylation", "setting": "WT mice in vivo, not InsP3R-I KO", "result": "three-fold"}, {"measurement": "plasma glucose and insulin concentrations", "setting": "WT mice, acute glucagon infusion", "result": "modest increase"}, {"measurement": "increase in hepatic pyruvate dehydrogenase flux (VPDH)", "setting": "WT mice, not InsP3R-I KO", "result": 7, "unit": "fold"}, {"measurement": "hepatic malonyl-CoA content", "setting": "acute glucagon infusion", "result": "independently of any changes"}, {"measurement": "increases in hepatic long-chain acyl-CoA and acetyl-CoA content", "setting": "acute glucagon infusion", "result": "35-60%"}, {"measurement": "VPK as percentage of hepatic VPC flux", "setting": "acute glucagon study", "result": "15-35%"}, {"measurement": "cAMP concentrations, protein kinase A activity, CRTC2 phosphorylation (liver)", "setting": "both genotypes", "result": "increased"}, {"measurement": "hormone-sensitive lipase (HSL) phosphorylation", "setting": "both genotypes", "result": "increased"}, {"measurement": "hepatic mitochondrial oxidation", "setting": "liver-specific InsP3R-I knockout mice", "result": "failed to exhibit any increases"}, {"measurement": "pyruvate kinase flux (VPK)", "setting": "mice infused with glucagon", "result": "without any difference"}]}]}
